For data set [1], the target named is HCV NS5B RNA polymerase GT 3a WT. Nature of the data set: NS5B enzyme assay, GT 3a WT. The following applies: NS5B enzyme GT 3a WT; average of two to three replicates ± SD. Type of data set: biochemical. The method, then:
The 21-amino-acid C-terminal truncated HCV NS5B RNA polymerase can be cloned from the HCV replicon cells, modified with a six-His-terminal tail, expressed in a prokaryotic expression vector (pQE60; Qiagen), and subsequently purified over a Talon cobalt affinity resin column (Clontech, Palo Alto, Calif.).^1 Purification can be monitored by SDS-PAGE and Western blotting. The resulting purified protein can be dialyzed overnight against 50 mM sodium phosphate (pH 8.0)-300 mM sodium chloride-0.5% Triton X-100-50% glycerol-2 mM dithiothreitol. The dialysate maintains consistent activity for more than 6 months when stored at −20° C. Protein can be quantified with the Coomassie Plus protein assay reagent (Pierce) by using a bovine serum albumin standard from the same supplier.
NS5B RNA polymerase reaction can be studied by monitoring the incorporation of ^32P-labeled UMP into the newly synthesized RNA strand by using minus IRES as the template. […] After the membrane is rinsed with water followed by rinsing with ethanol, the dots can be cut out and the radioactivity counted in a Packard liquid scintillation counter. The amount of product can be calculated on the basis of the total radioactivity in the reaction mixture. The rate of the reaction can be determined from the slope of the time course of product formation. […]

Data set [2] deals with mitochondrial DNA (COXII gene) in HepG2 cells. The experiment in a line: Mitochondrial DNA level in HepG2 cells (real-time PCR). Here is the method:
This assay was used in all studies described in this application that determine the effect of compounds on mitochondrial DNA content. In this assay, low-passage-number HepG2 cells were seeded at 5,000 cells/well in collagen-coated 96-well plates. Test compounds were added to the medium to obtain final concentrations of 0 μM, 0.1 μM, 10 μM and 100 μM. […] The mitochondrial cytochrome c oxidase subunit II (COXII) gene and the ß-actin or rRNA gene were amplified from 5 μl of the eluted nucleic acids using a multiplex Q-PCR protocol with suitable primers and probes for both target and reference amplifications. […] For exon 3 of the ß-actin gene (GenBank accession number E01094) the sense, probe, and antisense primers are 5′-[…]-3′ (SEQ ID NO. 4), 5′-6-[…]-3′ (SEQ ID NO. 5) and 5′-[…]-3′ (SEQ ID NO. 6), respectively. The primers and probes for the rRNA gene are commercially available from Applied Biosystems. […] The arithmetic formula for this approach is given by 2-ΔΔCT, where ΔΔCT is (CT for average target test sample−CT for target control)−(CT for average reference test−CT for reference control) (see Johnson M R, K Wang, J B Smith, M J Heslin, R B Diasio. Quantitation of dihydropyrimidine dehydrogenase expression by real-time reverse transcription polymerase chain reaction. Anal. Biochem. 2000; 278:175-184). A decrease in mitochondrial DNA content in cells grown in the presence of drug indicated mitochondrial toxicity.
(Real-time PCR tracks product formation cycle by cycle.)

Data set [3] has as its system HCV 1b (Huh 7 Clone B cells containing HCV Replicon RNA). The experiment in a line: HCV replicon assay. It counts as cell-based. The following applies: Hepatitis C virus, Huh-7, read-out: EC90 (μM or letter value) or % inhib HCV. Here is the method:
Huh 7 Clone B cells containing HCV Replicon RNA were seeded in a 96-well plate at 5000 cells/well, and the compounds tested at 10 μM in triplicate immediately after seeding. Following five days incubation (37° C., 5% CO2), total cellular RNA was isolated by using versaGene RNA purification kit from Gentra. Replicon RNA and an internal control (TaqMan rRNA control reagents, Applied Biosystems) were amplified in a single step multiplex Real Time RT-PCR Assay. The antiviral effectiveness of the compounds was calculated by subtracting the threshold RT-PCR cycle of the test compound from the threshold RT-PCR cycle of the no-drug control (ΔCt HCV). A ΔCt of 3.3 equals a 1-log reduction (equal to 90% less starting material) in Replicon RNA levels. The cytotoxicity of the compounds was also calculated by using the ΔCt rRNA values. 2′-C-Me-C was used as the positive control. To determine EC90 and IC50 values^2, ΔCt: values were first converted into fraction of starting material^3 and then were used to calculate the % inhibition. […]

The nature of data set [4]: Assay for bone marrow cytotoxicity. It counts as cell-based, human. The settings on record: human, primary bone marrow mononuclear cells; organization LOBP; read-out: Bone marrow toxicity, CC50. The method, then: Primary human bone marrow mononuclear cells can be obtained commercially from Cambrex Bioscience (Walkersville, Md.). CFU-GM assays is carried out using a bilayer soft agar in the presence of 50 units/mL human recombinant granulocyte/macrophage colony-stimulating factor, while BFU-E assays used a […] matrix containing 1 unit/mL erythropoietin (see Sommadossi J P, Carlisle R. Toxicity of 3′-azido-3′-deoxythymidine and 9-(1,3-dihydroxy-2-propoxymethyl) guanine for normal human hepatopoietic progenitor cells in vitro. Antimicrob. Agents Chemother. 1987; 31: 452-454; Sommadossi, J P, Schinazi, R F, Chu, C K, and Xie, M Y. Comparison of cytotoxicity of the (−) and (+) enantiomer of 2′,3′-dideoxy-3′-thiacytidine in normal human bone marrow progenitor cells. Biochem. Pharmacol. 1992; 44:1921-1925). Each experiment can be performed in duplicate in cells from three different donors. AZT is used as a positive control. […] Statistical analysis can be performed with Student's t test for independent non-paired samples.

Data set [5] in a line: Cytotoxicity in HCV replicon assay (ΔCt rRNA). It counts as cell-based. The following applies: human. Here is the method:
Huh 7 Clone B cells containing HCV Replicon RNA were seeded in a 96-well plate at 5000 cells/well, and the compounds tested at 10 μM in triplicate immediately after seeding. Following five days incubation (37° C., 5% CO2), total cellular RNA was isolated by using versaGene RNA purification kit from Gentra. Replicon RNA and an internal control (TaqMan rRNA control reagents, Applied Biosystems) were amplified in a single step multiplex Real Time RT-PCR Assay. The antiviral effectiveness of the compounds was calculated by subtracting the threshold RT-PCR cycle of the test compound from the threshold RT-PCR cycle of the no-drug control (ΔCt HCV). A ΔCt of 3.3 equals a 1-log reduction (equal to 90% less starting material) in Replicon RNA levels. The cytotoxicity of the compounds was also calculated by using the ΔCt rRNA values. 2′-C-Me-C was used as the positive control. To determine EC90 and IC50 values^2, ΔCt: values were first converted into fraction of starting material^3 and then were used to calculate the % inhibition.

The test system of a further data set is Huh-7 cells. Nature of the data set: Cellular pharmacology in Huh7 cells (intracellular metabolites). The following applies: Huh-7 cells, 50 μM, 4 hr. The method, then:
Ice-cold 70% methanol was used as the extraction solvent. ddATP (10 nM) was used as the internal standard.

The test system of the next data set is HepG2 cells. Nature of the data set: Lactic acid production in HepG2 cells. It counts as cell-based, human. The settings on record: 14-day assay. Here is the method:
To measure the effects of the compounds on lactic acid production, HepG2 cells from a stock culture were diluted and plated in 12-well culture plates at 2.5×10^4 cells per well. […] […] The culture medium was then filtered, and the lactic acid content in the medium was determined using a colorimetric lactic acid assay (Sigma-Aldrich). Since lactic acid product can be considered a marker for impaired mitochondrial function, elevated levels of lactic acid production detected in cells grown in the presence of test compounds would indicate a drug-induced cytotoxic effect.

Data set [6] relates to nuclear DNA (ß-actin or rRNA gene) in HepG2 cells. The experiment in a line: Nuclear DNA level in HepG2 cells (real-time PCR). The settings on record: Homo sapiens, 336 h, HepG2 cells, 14-day assay. It counts as cell-based, human. Here is the method: This assay was used in all studies described in this application that determine the effect of compounds on mitochondrial DNA content. In this assay, low-passage-number HepG2 cells were seeded at 5,000 cells/well in collagen-coated 96-well plates. Test compounds were added to the medium to obtain final concentrations of 0 μM, 0.1 μM, 10 μM and 100 μM. […] The mitochondrial cytochrome c oxidase subunit II (COXII) gene and the ß-actin or rRNA gene were amplified from 5 μl of the eluted nucleic acids using a multiplex Q-PCR protocol with suitable primers and probes for both target and reference amplifications. […] For exon 3 of the ß-actin gene (GenBank accession number E01094) the sense, probe, and antisense primers are 5′-[…]-3′ (SEQ ID NO. 4), 5′-6-[…]-3′ (SEQ ID NO. 5) and 5′-[…]-3′ (SEQ ID NO. 6), respectively. The primers and probes for the rRNA gene are commercially available from Applied Biosystems. […] The comparative CT method uses arithmetic formulas in which the amount of target (COXII gene) is normalized to the amount of an endogenous reference (the B-actin or rRNA gene) and is relative to a calibrator (a control with no drug at day 7). The arithmetic formula for this approach is given by 2-ΔΔCT, where ΔΔCT is (CT for average target test sample−CT for target control)−(CT for average reference test−CT for reference control) (see Johnson M R, K Wang, J B Smith, M J Heslin, R B Diasio. Quantitation of dihydropyrimidine dehydrogenase expression by real-time reverse transcription polymerase chain reaction. Anal. Biochem. 2000; 278:175-184). A decrease in mitochondrial DNA content in cells grown in the presence of drug indicated mitochondrial toxicity.

The mark [7] stands for this setting: Homo sapiens, HepG2, read-out: % inhibition MitDNA.

The structures appear in SMILES notation. Read-outs that look alike come from different tables or passages of the source.

Consider `C[C@@]1(O)[C@H](O)[C@@H](COP(=O)(O)OP(=O)(O)OP(=O)(O)O)O[C@H]1n1ccc(=O)[nH]c1=O` [2′-Me-UTP], for which the concentration giving a half-maximal response (EC50) (in general, the concentration at which the effect is half-maximal) in data set [1] worked out at 1.8 µM.

Regarding `O=c1ccn([C@@H]2O[C@H](CO)[C@@H](O)[C@@]2(F)Br)c(=O)[nH]1` [Compound 7, 2′-Deoxy-2′-Bromo-2′-Fluoro Uridine], the “Summary (mitochondrial toxicity)” value in data set [2] is recorded as “not toxic”; in data set [2] (human, 14 days), “non-toxic up to 10 μM”. For the same molecule, the inhibition (usually the change of the read-out against control, counted positive when it falls) at 10 µM in data set [2] (setting [7]) was less than 1%; in data set [6] (10 μM, read-out: % inhibition nDNA) it was 4.4%. Further, the inhibition at 50 µM is 13.5% in data set [2] (setting [7]) and less than 1% in data set [6] (50 μM, read-out: % inhibition nDNA). The IC50 (in general, the midpoint of a concentration-inhibition curve) in data set [2] (Homo sapiens, HepG2, read-out: IC50 MitDNA) was more than 50 µM; in data set [6] (read-out: IC50 nDNA) it was more than 50 µM. For the same molecule, the “MitDNA Content (% of control)” value is listed as 117 (98-138) % of control in data set [2] (human, 14 days, 10 μM) and 72 (63-83) % of control in data set [2] (human, 14 days, 50 μM). Moreover, the concentration for an effect of 90% (EC90) (usually the point of the concentration-response curve where the effect stands at 90%) in data set [3] was more than 10 µM. Besides, the half-maximal cytotoxic concentration (CC50) (usually the concentration giving 50% cytotoxicity) in data set [4] is more than 100 µM. The same molecule showed a cytotoxic concentration (CC50) at 5 days in data set [5] of more than 10 µM. Further, the “intracellular 7-DP” value with Huh-7 cells is “BLOQ”. Moreover, in the data set on Huh-7 cells, the “intracellular 7-MP” value is “BLOQ”. In addition, the “intracellular 7-TP” value in the data set on Huh-7 cells is reported as “BLOQ”. The “intracellular 9” value in the data set with Huh-7 cells is “BLOQ”. For the same molecule, the “Lactic acid Production (% of control)” value in the data set with HepG2 cells (10 μM) is on record as 85.0 ± 16.3 % of control; in the data set on HepG2 cells (50 μM) it was 69.0 ± 13.5 % of control.

For the origin of these results see patent US10011629B2, “Nucleoside analogs for treatment of the flaviviridae family of viruses and cancer” (Cocrystal Pharma, Inc., priority 2015, dated 2018).
